{"source": "paper PMC11466185", "about": "“Mechanisms and efficacy of small molecule latency-promoting agents to inhibit HIV reactivation ex vivo” (JCI Insight, 2024)", "tested_on": "HIV transcripts (TAR, LLTR, Pol, PolyA, TatRev)", "assay": "Cell-associated HIV transcripts (RT-ddPCR) 6 days after anti-CD3/CD28 activation of PBMCs from ART-suppressed PWH", "assay_type": "cell-based", "settings": "for LLTR/TAR / PolyA/LLTR / TatRev/PolyA: DMSO+CD3/28 = 1, Fig 4B, C and D; for Pol / PolyA / TAR / TatRev: DMSO αCD3/28 = 100, Fig 4A", "protocol": "Next, we evaluated the ability of the candidate LPAs to sustain the inhibitory effects during a prolonged ex vivo culture. To this end, PBMCs were cultured in the presence of individual drugs in DMSO or in DMSO alone as control, activated (anti-CD3/CD28), and harvested after 6 days. […] However, we decided to test the drug on day 6 because extra cells were available from some study participants.\nEach drug was tested in PBMCs from at least 6 ART-suppressed study participants (except for KRIBB11, n = 5). PBMCs were aliquoted into wells at 6 × 10^6 cells/well. After activation, the cells were cultured with antiretrovirals in the presence of individual drugs in DMSO or DMSO alone as control. All conditions were tested in the presence of CD3/28 T cell–activating beads, except for the unactivated DMSO condition. After 6 days, total cellular RNA was extracted, and the progression through different stages of HIV transcription was quantified by measuring the levels of initiated (TAR), 5′ elongated (LLTR), midtranscribed/unspliced (Pol), completed (PolyA), and multiply spliced (TatRev) HIV transcripts. (A) The levels of all HIV transcripts were normalized to 1 μg of total cellular RNA and expressed as a percentage of the activated DMSO control (% of activated DMSO). Medians are shown as well as the individual values per study participant in different colors. (B–D) The effect of each drug on HIV transcriptional progression after activation was analyzed by the ratio of one HIV transcript to another. Ratios are independent of HIV infection frequency or normalization to cell numbers. Shown are the proportion of (B) all HIV transcripts that are elongated (LLTR/TAR), (C) elongated HIV transcripts that are completed (PolyA/LLTR), and (D) completed transcripts that are multiply spliced (TatRev/PolyA). Medians and IQR are presented, along with the individual values per study participant in different colors. P values were calculated using Wilcoxon’s signed-rank test: *P < 0.05.\nPBMCs were isolated from fresh venous blood from 16 ART-suppressed HIV-infected study participants using Ficoll density gradient centrifugation. The cells were seeded at 6 × 10^6 cells/well and cultured with antiretrovirals (nevirapine and indinavir) to prevent new infection. On the next day, PBMCs were activated with anti-CD3/CD28–coated beads (Invitrogen) in the presence of 20 U/mL IL-2 and individual drugs in DMSO or DMSO alone as a control. Since we were limited in the PBMC yield per study participant, different study participants were used for different experiments (such as the initial screen, dose response, different time points, and studies in activated vs. unstimulated cells). In addition, the yields of PBMCs were sometimes insufficient to test all drugs for a given question or experiment.\nFor quantification of cell-associated HIV transcripts, PBMCs were harvested either after 24 hours or after 6 days. The cell viabilities were measured by trypan blue staining; then the cells were pelleted by centrifuging at 300g for 6 minutes and stored at –80°C. For quantification of virion-associated HIV RNA, cell culture supernatant was collected from 6 × 10^6 PBMCs that were treated and activated for 6 days as described above. Residual cells and cellular debris were subsequently removed from the supernatant by differential centrifugation (300g for 6 minutes, then 20,000g for 10 minutes), and the supernatant was stored at –80°C.\nTotal cellular DNA and RNA were extracted in parallel using Trireagent (Molecular Research Center) according to the manufacturer’s instructions, except for study participants 2147 and 2461 (Figure 4), for whom DNA and RNA were extracted using the QIAGEN AllPrep DNA/RNA/miRNA Universal Kit with on-column DNase I treatment of the RNA and the manufacturer’s modification to enhance recovery of short transcripts.", "note": "“And” between values parts separate entries of the source, which are not always exact repeats. Identical values can stand only once."}
{"molecule": "CN1CC[C@H](c2c(O)cc(O)c3c(=O)cc(-c4ccccc4Cl)oc23)[C@H](O)C1", "note": "[alvocidib]", "values": [{"measurement": "LLTR/TAR", "setting": "participant 150b", "result": 0.5959}, {"measurement": "PolyA/LLTR", "setting": "participant 150b", "result": 1.023}, {"measurement": "TatRev/PolyA", "setting": "participant 150b", "result": 0.12}, {"measurement": "LLTR/TAR", "setting": "participant 1379", "result": 0.8323}, {"measurement": "PolyA/LLTR", "setting": "participant 1379", "result": 0.9327}, {"measurement": "LLTR/TAR", "setting": "participant 2027", "result": 0.4309}, {"measurement": "PolyA/LLTR", "setting": "participant 2027", "result": 0.9713}, {"measurement": "TatRev/PolyA", "setting": "participant 2027", "result": 0.1413}, {"measurement": "LLTR/TAR", "setting": "participant 2147a", "result": 0.3521}, {"measurement": "PolyA/LLTR", "setting": "participant 2147a", "result": 0.4486}, {"measurement": "TatRev/PolyA", "setting": "participant 2147a", "result": 0.2041}, {"measurement": "LLTR/TAR", "setting": "participant 2161", "result": 1.064}, {"measurement": "PolyA/LLTR", "setting": "participant 2161", "result": 0.55}, {"measurement": "LLTR/TAR", "setting": "participant 2256", "result": 0.6179}, {"measurement": "PolyA/LLTR", "setting": "participant 2256", "result": 0.6868}, {"measurement": "TatRev/PolyA", "setting": "participant 2256", "result": 0.617}, {"measurement": "LLTR/TAR", "setting": "participant 2461", "result": 1.513}, {"measurement": "PolyA/LLTR", "setting": "participant 2461", "result": 1.443}, {"measurement": "LLTR/TAR", "setting": "participant 2747", "result": 0}, {"measurement": "LLTR/TAR", "setting": "participant 5557", "result": 0.4901}, {"measurement": "PolyA/LLTR", "setting": "participant 5557", "result": 0.9442}]}
{"molecule": "pladienolide B", "values": [{"measurement": "LLTR HIV transcripts (DMSO αCD3/28 = 100)", "setting": "10nM, 6 days after αCD3/28 activation, each column one participant", "result": "48.15 and 112.06 and 64.44 and 97.37 and 80.45 and 82.86"}, {"measurement": "Pol", "setting": "participant 2027", "result": 56.14}, {"measurement": "PolyA", "setting": "participant 2027", "result": 45.13}, {"measurement": "TAR", "setting": "participant 2027", "result": 270.3}, {"measurement": "TatRev", "setting": "participant 2027", "result": 0}, {"measurement": "LLTR/TAR", "setting": "participant 2027", "result": 0.3065}, {"measurement": "PolyA/LLTR", "setting": "participant 2027", "result": 0.5447}, {"measurement": "TatRev/PolyA", "setting": "participant 2027", "result": 0}, {"measurement": "Pol", "setting": "participant 2147a", "result": 74.51}, {"measurement": "PolyA", "setting": "participant 2147a", "result": 38.34}, {"measurement": "TAR", "setting": "participant 2147a", "result": 177.4}, {"measurement": "TatRev", "setting": "participant 2147a", "result": 22.95}, {"measurement": "LLTR/TAR", "setting": "participant 2147a", "result": 0.2714}, {"measurement": "PolyA/LLTR", "setting": "participant 2147a", "result": 0.7963}, {"measurement": "TatRev/PolyA", "setting": "participant 2147a", "result": 0.342}, {"measurement": "Pol", "setting": "participant 2161", "result": 44.19}, {"measurement": "PolyA", "setting": "participant 2161", "result": 152.38}, {"measurement": "TAR", "setting": "participant 2161", "result": 52.78}, {"measurement": "TatRev", "setting": "participant 2161", "result": 381.82}, {"measurement": "LLTR/TAR", "setting": "participant 2161", "result": 1.5241}, {"measurement": "PolyA/LLTR", "setting": "participant 2161", "result": 1.89}, {"measurement": "TatRev/PolyA", "setting": "participant 2161", "result": 2.506}, {"measurement": "PolyA", "setting": "participant 2461", "result": 53.85}, {"measurement": "TAR", "setting": "participant 2461", "result": 91.45}, {"measurement": "LLTR/TAR", "setting": "participant 2461", "result": 1.065}, {"measurement": "PolyA/LLTR", "setting": "participant 2461", "result": 0.553}, {"measurement": "Pol", "setting": "participant 2747", "result": 21.03}, {"measurement": "PolyA", "setting": "participant 2747", "result": 65.33}, {"measurement": "TAR", "setting": "participant 2747", "result": 95.91}, {"measurement": "TatRev", "setting": "participant 2747", "result": 0}, {"measurement": "TatRev/PolyA", "setting": "participant 2747", "result": 0}, {"measurement": "Pol", "setting": "participant 2750", "result": 212.24}, {"measurement": "PolyA", "setting": "participant 2750", "result": 74.85}, {"measurement": "TAR", "setting": "participant 2750", "result": 108.21}, {"measurement": "TatRev", "setting": "participant 2750", "result": 155}, {"measurement": "LLTR/TAR", "setting": "participant 2750", "result": 1.036}, {"measurement": "PolyA/LLTR", "setting": "participant 2750", "result": 0.668}, {"measurement": "TatRev/PolyA", "setting": "participant 2750", "result": 2.0707}]}
{"molecule": "N#CC[C@H](C1CCCC1)n1cc(-c2ncnc3[nH]ccc23)cn1", "note": "[ruxolitinib]", "values": [{"measurement": "LLTR/TAR", "setting": "participant 150b", "result": 0.6749}, {"measurement": "PolyA/LLTR", "setting": "participant 150b", "result": 0.4135}, {"measurement": "TatRev/PolyA", "setting": "participant 150b", "result": 0.45}, {"measurement": "LLTR/TAR", "setting": "participant 2027", "result": 0.1463}, {"measurement": "PolyA/LLTR", "setting": "participant 2027", "result": 0.4929}, {"measurement": "TatRev/PolyA", "setting": "participant 2027", "result": 0}, {"measurement": "LLTR/TAR", "setting": "participant 2147a", "result": 0.473}, {"measurement": "PolyA/LLTR", "setting": "participant 2147a", "result": 0.2896}, {"measurement": "TatRev/PolyA", "setting": "participant 2147a", "result": 0}, {"measurement": "LLTR/TAR", "setting": "participant 2161", "result": 2.396}, {"measurement": "PolyA/LLTR", "setting": "participant 2161", "result": 0.46}, {"measurement": "TatRev/PolyA", "setting": "participant 2161", "result": 0}, {"measurement": "LLTR/TAR", "setting": "participant 2461", "result": 3.402}, {"measurement": "PolyA/LLTR", "setting": "participant 2461", "result": 0}, {"measurement": "LLTR/TAR", "setting": "participant 2747", "result": 0.4032}, {"measurement": "PolyA/LLTR", "setting": "participant 2747", "result": 1.05}, {"measurement": "TatRev/PolyA", "setting": "participant 2747", "result": 0}, {"measurement": "LLTR/TAR", "setting": "participant 2750", "result": 1.117}, {"measurement": "PolyA/LLTR", "setting": "participant 2750", "result": 1.35}, {"measurement": "TatRev/PolyA", "setting": "participant 2750", "result": 1.555}]}
{"molecule": "CC(=O)N[C@@H]1CCC[C@H](C(=O)Nc2cc(-c3cnn4c3CC(C)(C)C4)c(Cl)cn2)C1", "note": "[AZD4573]", "values": [{"measurement": "LLTR/TAR", "setting": "participant 2027", "result": 0.3501}, {"measurement": "PolyA/LLTR", "setting": "participant 2027", "result": 0.2124}, {"measurement": "TatRev/PolyA", "setting": "participant 2027", "result": 0}, {"measurement": "LLTR/TAR", "setting": "participant 2147a", "result": 0.6972}, {"measurement": "PolyA/LLTR", "setting": "participant 2147a", "result": 0.4073}, {"measurement": "TatRev/PolyA", "setting": "participant 2147a", "result": 0.2876}, {"measurement": "LLTR/TAR", "setting": "participant 2161", "result": 0.7137}, {"measurement": "PolyA/LLTR", "setting": "participant 2161", "result": 1.39}, {"measurement": "TatRev/PolyA", "setting": "participant 2161", "result": 0}, {"measurement": "LLTR/TAR", "setting": "participant 2461", "result": 1.973}, {"measurement": "PolyA/LLTR", "setting": "participant 2461", "result": 0.4151}, {"measurement": "PolyA/LLTR", "setting": "participant 2747", "result": 0.4425}, {"measurement": "LLTR/TAR", "setting": "participant 2750", "result": 0.6631}, {"measurement": "PolyA/LLTR", "setting": "participant 2750", "result": 1.188}, {"measurement": "TatRev/PolyA", "setting": "participant 2750", "result": 0.2617}]}
